Reference: ChEMBL document CHEMBL4804286, “3-amino-4-(4-(4 (dimethylcarbamoyl) phenyl)-1,4-diazepan-1-yl) thieno [2,3-b] pyridine-2-carboxamide for use in cancer therapy and formulations comprising the same” (2020)
Where “and” joins values, the source holds several entries; their conditions need not be identical. Identical values can stand only once. Calls of active or inactive are those of the source. The rule behind the calls is not given here.

Assays:
[1] = system: Myc-CaP; experiment: Antiproliferative activity against murine castration-resistant Myc-CaP cells at 1 uM assessed as growth inhibition in presence of 5 uM enzalutamide relative to control; type: functional; conditions: Mus musculus
[2] = biological target: Serine/threonine-protein kinase pim-3 (Homo sapiens) (UniProt Q86V86); experiment: Inhibition of human PIM3 assessed as percent of control at 2000 nM by KINOMEscan assay relative to control; design: scale not given: the % may be the effect or the level left
[3] = biological target: Serine/threonine-protein kinase PAK 2 (Homo sapiens) (UniProt Q13177); experiment: Inhibition of human PAK2 assessed as percent of control at 2000 nM by KINOMEscan assay relative to control; design: scale not given: the % may be the effect or the level left
[4] = biological target: Testis-specific serine/threonine-protein kinase 3 (Homo sapiens) (UniProt Q96PN8); experiment: Inhibition of human TSSK3 assessed as percent of control at 2000 nM by KINOMEscan assay relative to control; design: scale not given: the % may be the effect or the level left
[5] = biological target: Misshapen-like kinase 1 (Homo sapiens) (UniProt Q8N4C8); experiment: Inhibition of human MINK assessed as percent of control at 2000 nM by KINOMEscan assay relative to control; design: scale not given: the % may be the effect or the level left
[6] = biological target: Epidermal growth factor receptor (Homo sapiens) (UniProt P00533); experiment: Inhibition of human EGFR assessed as percent of control at 2000 nM by KINOMEscan assay relative to control; design: scale not given: the % may be the effect or the level left
[7] = biological target: Myosin light chain kinase 2, skeletal/cardiac muscle (Homo sapiens) (UniProt Q9H1R3); experiment: Inhibition of human MYLK2 assessed as percent of control at 2000 nM by KINOMEscan assay relative to control; design: scale not given: the % may be the effect or the level left
[8] = system: Epidermal growth factor receptor (Homo sapiens), P00533 [L861Q]; experiment: Inhibition of human EGFR L861Q mutant assessed as percent of control at 2000 nM by KINOMEscan assay relative to control; design: scale not given: the % may be the effect or the level left
[9] = biological target: Serine/threonine-protein kinase Sgk3 (Homo sapiens) (UniProt Q96BR1); experiment: Inhibition of human SGK3 assessed as percent of control at 2000 nM by KINOMEscan assay relative to control; design: scale not given: the % may be the effect or the level left
[10] = biological target: Epithelial discoidin domain-containing receptor 1 (Homo sapiens) (UniProt Q08345); experiment: Inhibition of human DDR1 assessed as percent of control at 2000 nM by KINOMEscan assay relative to control; design: scale not given: the % may be the effect or the level left
[11] = biological target: Glycogen synthase kinase-3 beta (Homo sapiens) (UniProt P49841); experiment: Inhibition of human GSK3B assessed as percent of control at 2000 nM by KINOMEscan assay relative to control; design: scale not given: the % may be the effect or the level left
[12] = biological target: Insulin receptor-related protein (Homo sapiens) (UniProt P14616); experiment: Inhibition of human INSRR assessed as percent of control at 2000 nM by KINOMEscan assay relative to control; design: scale not given: the % may be the effect or the level left
[13] = system: ALK tyrosine kinase receptor (Homo sapiens), Q9UM73 [L1196M]; experiment: Inhibition of human ALK L1196M mutant assessed as percent of control at 2000 nM by KINOMEscan assay relative to control; design: scale not given: the % may be the effect or the level left
[14] = biological target: Inhibitor of nuclear factor kappa-B kinase subunit alpha (Homo sapiens) (UniProt O15111); experiment: Inhibition of human IKK-alpha assessed as percent of control at 2000 nM by KINOMEscan assay relative to control; design: scale not given: the % may be the effect or the level left
[15] = biological target: Cyclin-dependent kinase 7 (Homo sapiens) (UniProt P50613); experiment: Inhibition of human CDK7 assessed as percent of control at 2000 nM by KINOMEscan assay relative to control; design: scale not given: the % may be the effect or the level left
[16] = biological target: Mitogen-activated protein kinase kinase kinase 13 (Homo sapiens) (UniProt O43283); experiment: Inhibition of human LZK assessed as percent of control at 2000 nM by KINOMEscan assay relative to control; design: scale not given: the % may be the effect or the level left
[17] = biological target: cAMP-dependent protein kinase catalytic subunit beta (Homo sapiens) (UniProt P22694); experiment: Inhibition of human PKAC-beta assessed as percent of control at 2000 nM by KINOMEscan assay relative to control; design: scale not given: the % may be the effect or the level left
[18] = system: Phosphatidylinositol 4,5-bisphosphate 3-kinase catalytic subunit alpha isoform (Homo sapiens), P42336 [C420R]; experiment: Inhibition of human PIK3CA C420R mutant assessed as percent of control at 2000 nM by KINOMEscan assay relative to control; design: scale not given: the % may be the effect or the level left
[19] = biological target: Maternal embryonic leucine zipper kinase (Homo sapiens) (UniProt Q14680); experiment: Inhibition of human MELK assessed as percent of control at 2000 nM by KINOMEscan assay relative to control; design: scale not given: the % may be the effect or the level left
[20] = biological target: Cyclin-dependent kinase 14 (Homo sapiens) (UniProt O94921); experiment: Inhibition of human PFTK1 assessed as percent of control at 2000 nM by KINOMEscan assay relative to control; design: scale not given: the % may be the effect or the level left
[21] = system: Epidermal growth factor receptor (Homo sapiens), P00533 [G719S]; experiment: Inhibition of human EGFR G719S assessed as percent of control at 2000 nM by KINOMEscan assay relative to control; design: scale not given: the % may be the effect or the level left
[22] = biological target: Muscle, skeletal receptor tyrosine-protein kinase (Homo sapiens) (UniProt O15146); experiment: Inhibition of human MUSK assessed as percent of control at 2000 nM by KINOMEscan assay relative to control; design: scale not given: the % may be the effect or the level left
[23] = biological target: Serine/threonine-protein kinase PAK 5 (Homo sapiens) (UniProt Q9P286); experiment: Inhibition of human PAK7 assessed as percent of control at 2000 nM by KINOMEscan assay relative to control; design: scale not given: the % may be the effect or the level left
[24] = system: Serine/threonine-protein kinase B-raf (Homo sapiens), P15056 [V600E]; experiment: Inhibition of human BRAF V600E mutant assessed as percent of control at 2000 nM by KINOMEscan assay relative to control; design: scale not given: the % may be the effect or the level left
[25] = biological target: Dual specificity tyrosine-phosphorylation-regulated kinase 2 (Homo sapiens) (UniProt Q92630); experiment: Inhibition of human DYRK2 assessed as percent of control at 2000 nM by KINOMEscan assay relative to control; design: scale not given: the % may be the effect or the level left
[26] = biological target: Tyrosine-protein kinase Blk (Homo sapiens) (UniProt P51451); experiment: Inhibition of human BLK assessed as percent of control at 2000 nM by KINOMEscan assay relative to control; design: scale not given: the % may be the effect or the level left
[27] = system: Tyrosine-protein kinase ABL1 (Homo sapiens), P00519 [T315I]; experiment: Inhibition of non-phosphorylated human ABL1 T315I mutant assessed as percent of control at 2000 nM by KINOMEscan assay relative to control; design: scale not given: the % may be the effect or the level left
[28] = biological target: Death-associated protein kinase 1 (Homo sapiens) (UniProt P53355); experiment: Inhibition of human DAPK1 assessed as percent of control at 2000 nM by KINOMEscan assay relative to control; design: scale not given: the % may be the effect or the level left
[29] = biological target: Glycogen synthase kinase-3 alpha (Homo sapiens) (UniProt P49840); experiment: Inhibition of human GSK3A assessed as percent of control at 2000 nM by KINOMEscan assay relative to control; design: scale not given: the % may be the effect or the level left; conditions: INHIBITOR
[30] = biological target: Serine/threonine-protein kinase ULK2 (Homo sapiens) (UniProt Q8IYT8); experiment: Inhibition of human ULK2 assessed as percent of control at 2000 nM by KINOMEscan assay relative to control; design: scale not given: the % may be the effect or the level left
[31] = biological target: Casein kinase I isoform alpha-like (Homo sapiens) (UniProt Q8N752); experiment: Inhibition of human CSNK1A1L assessed as percent of control at 2000 nM by KINOMEscan assay relative to control; design: scale not given: the % may be the effect or the level left
Sequence of Casein kinase I isoform alpha-like (Homo sapiens) (Q8N752 whole entry, canonical isoform): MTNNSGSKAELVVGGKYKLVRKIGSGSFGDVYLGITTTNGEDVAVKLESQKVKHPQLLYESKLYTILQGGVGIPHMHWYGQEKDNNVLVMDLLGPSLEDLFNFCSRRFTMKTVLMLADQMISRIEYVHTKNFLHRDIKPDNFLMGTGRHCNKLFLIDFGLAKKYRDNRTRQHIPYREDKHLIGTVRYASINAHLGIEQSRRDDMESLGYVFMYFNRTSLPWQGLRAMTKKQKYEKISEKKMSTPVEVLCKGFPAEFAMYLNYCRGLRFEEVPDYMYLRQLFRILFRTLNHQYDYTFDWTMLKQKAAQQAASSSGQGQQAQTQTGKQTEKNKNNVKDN

Sequence of Mitogen-activated protein kinase kinase kinase 13 (Homo sapiens) (O43283 whole entry): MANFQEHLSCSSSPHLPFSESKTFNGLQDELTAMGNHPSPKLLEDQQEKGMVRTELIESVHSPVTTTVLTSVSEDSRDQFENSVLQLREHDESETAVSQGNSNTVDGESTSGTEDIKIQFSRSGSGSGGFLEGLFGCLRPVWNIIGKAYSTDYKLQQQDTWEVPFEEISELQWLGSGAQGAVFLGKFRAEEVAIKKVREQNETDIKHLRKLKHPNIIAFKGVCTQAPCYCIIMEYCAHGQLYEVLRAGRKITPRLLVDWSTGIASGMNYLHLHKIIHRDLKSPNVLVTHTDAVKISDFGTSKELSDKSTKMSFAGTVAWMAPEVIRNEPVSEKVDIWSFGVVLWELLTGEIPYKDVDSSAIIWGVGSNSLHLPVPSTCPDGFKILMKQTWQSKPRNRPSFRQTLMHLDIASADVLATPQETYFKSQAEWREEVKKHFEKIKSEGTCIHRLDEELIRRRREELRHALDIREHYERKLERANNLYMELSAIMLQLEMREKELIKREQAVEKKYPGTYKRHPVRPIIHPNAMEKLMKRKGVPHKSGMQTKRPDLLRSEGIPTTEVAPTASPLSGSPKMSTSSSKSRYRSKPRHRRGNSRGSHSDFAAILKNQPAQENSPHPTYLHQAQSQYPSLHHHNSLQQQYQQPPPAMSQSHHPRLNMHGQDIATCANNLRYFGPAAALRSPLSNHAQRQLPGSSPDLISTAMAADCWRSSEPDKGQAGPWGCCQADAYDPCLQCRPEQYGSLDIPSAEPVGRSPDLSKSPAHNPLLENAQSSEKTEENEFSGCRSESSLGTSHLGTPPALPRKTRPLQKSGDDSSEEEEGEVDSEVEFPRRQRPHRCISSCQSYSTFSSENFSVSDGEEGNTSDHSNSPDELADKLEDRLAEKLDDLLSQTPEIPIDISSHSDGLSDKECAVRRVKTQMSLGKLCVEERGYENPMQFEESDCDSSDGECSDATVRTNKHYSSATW
Sequence of Serine/threonine-protein kinase PAK 2 (Homo sapiens) (Q13177 whole entry): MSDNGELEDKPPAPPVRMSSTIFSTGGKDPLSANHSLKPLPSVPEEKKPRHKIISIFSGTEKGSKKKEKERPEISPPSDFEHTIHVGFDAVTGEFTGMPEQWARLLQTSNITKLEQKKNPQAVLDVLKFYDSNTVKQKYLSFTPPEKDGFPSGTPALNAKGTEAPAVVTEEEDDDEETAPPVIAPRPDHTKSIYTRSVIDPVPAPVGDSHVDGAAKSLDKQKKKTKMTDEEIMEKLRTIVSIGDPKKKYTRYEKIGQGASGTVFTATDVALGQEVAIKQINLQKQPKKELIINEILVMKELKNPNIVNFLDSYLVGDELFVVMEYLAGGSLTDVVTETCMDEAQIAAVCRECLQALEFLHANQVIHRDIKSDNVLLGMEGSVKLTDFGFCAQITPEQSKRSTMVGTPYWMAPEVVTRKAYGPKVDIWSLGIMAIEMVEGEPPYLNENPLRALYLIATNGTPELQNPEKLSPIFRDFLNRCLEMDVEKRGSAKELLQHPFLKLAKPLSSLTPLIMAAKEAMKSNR
Sequence of Inhibitor of nuclear factor kappa-B kinase subunit alpha (Homo sapiens) (O15111 whole entry): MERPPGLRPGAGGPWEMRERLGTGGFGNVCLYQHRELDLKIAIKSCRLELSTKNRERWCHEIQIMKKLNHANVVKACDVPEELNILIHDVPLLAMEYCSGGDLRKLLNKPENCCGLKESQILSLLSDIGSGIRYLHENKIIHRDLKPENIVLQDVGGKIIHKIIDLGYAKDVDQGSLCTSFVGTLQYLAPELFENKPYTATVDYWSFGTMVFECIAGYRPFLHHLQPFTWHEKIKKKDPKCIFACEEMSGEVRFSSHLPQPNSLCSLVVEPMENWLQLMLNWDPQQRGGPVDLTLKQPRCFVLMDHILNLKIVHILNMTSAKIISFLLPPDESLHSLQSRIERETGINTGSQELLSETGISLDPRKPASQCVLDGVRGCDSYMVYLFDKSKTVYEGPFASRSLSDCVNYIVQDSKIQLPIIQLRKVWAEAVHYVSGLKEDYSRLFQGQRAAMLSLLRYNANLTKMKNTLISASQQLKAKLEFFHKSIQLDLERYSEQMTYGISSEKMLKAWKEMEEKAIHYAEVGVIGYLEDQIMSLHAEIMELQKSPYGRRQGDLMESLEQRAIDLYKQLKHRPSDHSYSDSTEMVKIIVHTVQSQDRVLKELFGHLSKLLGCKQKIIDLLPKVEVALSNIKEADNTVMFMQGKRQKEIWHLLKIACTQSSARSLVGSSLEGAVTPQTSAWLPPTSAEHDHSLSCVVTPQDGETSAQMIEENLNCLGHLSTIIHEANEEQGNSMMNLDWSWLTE
Sequence of Dual specificity tyrosine-phosphorylation-regulated kinase 2 (Homo sapiens) (Q92630 whole entry): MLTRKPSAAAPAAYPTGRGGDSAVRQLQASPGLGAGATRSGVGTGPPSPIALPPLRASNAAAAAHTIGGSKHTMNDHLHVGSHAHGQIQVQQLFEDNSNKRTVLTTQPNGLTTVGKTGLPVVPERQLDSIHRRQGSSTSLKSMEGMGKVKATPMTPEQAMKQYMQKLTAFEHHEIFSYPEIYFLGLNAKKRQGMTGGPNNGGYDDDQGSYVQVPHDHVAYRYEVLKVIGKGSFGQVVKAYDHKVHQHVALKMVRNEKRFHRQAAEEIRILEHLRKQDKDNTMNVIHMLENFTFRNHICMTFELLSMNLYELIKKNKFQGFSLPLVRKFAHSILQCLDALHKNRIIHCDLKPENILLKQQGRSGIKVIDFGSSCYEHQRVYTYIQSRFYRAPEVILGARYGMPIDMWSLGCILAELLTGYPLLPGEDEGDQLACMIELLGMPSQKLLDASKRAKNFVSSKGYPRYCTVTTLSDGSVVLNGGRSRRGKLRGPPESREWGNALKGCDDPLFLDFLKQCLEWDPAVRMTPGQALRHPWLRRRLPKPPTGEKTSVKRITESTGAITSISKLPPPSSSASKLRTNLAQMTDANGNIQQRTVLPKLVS
Sequence of Death-associated protein kinase 1 (Homo sapiens) (P53355 whole entry, looked up): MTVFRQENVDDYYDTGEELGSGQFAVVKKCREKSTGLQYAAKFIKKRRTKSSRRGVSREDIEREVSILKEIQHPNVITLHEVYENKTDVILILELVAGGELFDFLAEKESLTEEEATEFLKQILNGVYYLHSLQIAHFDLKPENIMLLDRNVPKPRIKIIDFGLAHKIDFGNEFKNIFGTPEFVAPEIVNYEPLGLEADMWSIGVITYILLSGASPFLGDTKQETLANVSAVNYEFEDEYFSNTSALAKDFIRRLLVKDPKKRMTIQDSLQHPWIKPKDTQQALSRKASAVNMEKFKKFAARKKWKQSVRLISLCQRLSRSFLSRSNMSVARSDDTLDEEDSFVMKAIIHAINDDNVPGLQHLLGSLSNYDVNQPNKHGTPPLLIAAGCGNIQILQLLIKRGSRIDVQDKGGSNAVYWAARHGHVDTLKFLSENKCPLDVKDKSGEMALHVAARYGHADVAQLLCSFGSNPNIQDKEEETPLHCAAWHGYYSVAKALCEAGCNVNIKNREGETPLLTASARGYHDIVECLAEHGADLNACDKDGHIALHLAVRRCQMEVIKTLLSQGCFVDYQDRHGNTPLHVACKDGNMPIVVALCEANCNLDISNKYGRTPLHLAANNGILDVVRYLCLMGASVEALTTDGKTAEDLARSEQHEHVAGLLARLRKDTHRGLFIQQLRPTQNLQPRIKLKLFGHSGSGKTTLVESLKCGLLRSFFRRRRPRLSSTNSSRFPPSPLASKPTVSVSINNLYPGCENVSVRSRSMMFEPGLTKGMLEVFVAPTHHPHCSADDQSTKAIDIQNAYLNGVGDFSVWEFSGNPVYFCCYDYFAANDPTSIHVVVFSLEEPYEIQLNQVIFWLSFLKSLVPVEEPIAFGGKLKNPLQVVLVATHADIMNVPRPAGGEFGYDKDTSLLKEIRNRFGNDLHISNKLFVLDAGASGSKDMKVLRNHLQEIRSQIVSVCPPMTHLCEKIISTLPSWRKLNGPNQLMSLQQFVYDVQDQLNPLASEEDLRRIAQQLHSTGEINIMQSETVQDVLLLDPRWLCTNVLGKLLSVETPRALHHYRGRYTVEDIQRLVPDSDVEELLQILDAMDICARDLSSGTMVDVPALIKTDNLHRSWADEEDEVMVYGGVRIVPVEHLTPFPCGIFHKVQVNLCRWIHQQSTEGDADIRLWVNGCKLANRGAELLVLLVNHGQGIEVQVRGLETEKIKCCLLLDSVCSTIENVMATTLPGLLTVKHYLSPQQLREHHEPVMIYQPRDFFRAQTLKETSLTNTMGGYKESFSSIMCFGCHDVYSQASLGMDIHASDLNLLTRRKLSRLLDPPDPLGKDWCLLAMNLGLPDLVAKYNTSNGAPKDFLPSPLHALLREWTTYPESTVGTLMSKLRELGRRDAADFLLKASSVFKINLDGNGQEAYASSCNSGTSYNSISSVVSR

## CN(C)C(=O)c1ccc(N2CCCN(c3ccnc4sc(C(N)=O)c(N)c34)CC2)cc1
[1]
  Activity: Active
[2]
  Activity: 89% and 98%
[3]
  Activity: 91% and 94%
[4]
  Activity: 93% and 100%
[5]
  Activity: 100% and 87%
[6]
  Activity: 100% and 87%
[7]
  Activity: 100%
[8]
  Activity: 78% and 100%
[9]
  Activity: 79% and 80%
[10]
  Activity: 82% and 90%
[11]
  Activity: 79% and 77%
[12]
  Activity: 99% and 89%
[13]
  Activity: 96% and 92%
[14]
  Activity: 77% and 90%
[15]
  Activity: 100% and 78%
[16]
  Activity: 100% and 87%
[17]
  Activity: 83% and 100%
[18]
  Activity: 100% and 86%
[19]
  Activity: 75% and 84%
[20]
  Activity: 96% and 100%
[21]
  Activity: 100%
[22]
  Activity: 94% and 82%
[23]
  Activity: 100% and 80%
[24]
  Activity: 100% and 84%
[25]
  Activity: 100% and 97%
[26]
  Activity: 100% and 92%
[27]
  Activity: 90% and 78%
[28]
  Activity: 92% and 88%
[29]
  Activity: 31% and 34%
[30]
  Activity: 90% and 83%
[31]
  Activity: 67%
[31]; INHIBITOR
  Activity: 37%
